The record followed here is patent publication US11053225B2, “Pyrimidine derivative compound, optical isomer thereof, or pharmaceutically acceptable salt thereof, and composition for preventing or treating Tyro 3 related disease comprising same as active ingredient” (KOREA RESEARCH INSTITUTE OF CHEMICAL TECHNOLOGY, priority 2017, dated 2021).

Some results are limits rather than exact numbers.

For one assay, the target named is Axl (Homo sapiens (Human), UniProt P30530). As to the kind of experiment: Axl kinase inhibition assay (Cisbio method, Eu-labeled antibody to phosphorylated peptide). Particulars: read-out: IC50 (μM) Axl; 1 hour reaction with substrate peptide and ATP.
Axl, sequence (P30530 26-894): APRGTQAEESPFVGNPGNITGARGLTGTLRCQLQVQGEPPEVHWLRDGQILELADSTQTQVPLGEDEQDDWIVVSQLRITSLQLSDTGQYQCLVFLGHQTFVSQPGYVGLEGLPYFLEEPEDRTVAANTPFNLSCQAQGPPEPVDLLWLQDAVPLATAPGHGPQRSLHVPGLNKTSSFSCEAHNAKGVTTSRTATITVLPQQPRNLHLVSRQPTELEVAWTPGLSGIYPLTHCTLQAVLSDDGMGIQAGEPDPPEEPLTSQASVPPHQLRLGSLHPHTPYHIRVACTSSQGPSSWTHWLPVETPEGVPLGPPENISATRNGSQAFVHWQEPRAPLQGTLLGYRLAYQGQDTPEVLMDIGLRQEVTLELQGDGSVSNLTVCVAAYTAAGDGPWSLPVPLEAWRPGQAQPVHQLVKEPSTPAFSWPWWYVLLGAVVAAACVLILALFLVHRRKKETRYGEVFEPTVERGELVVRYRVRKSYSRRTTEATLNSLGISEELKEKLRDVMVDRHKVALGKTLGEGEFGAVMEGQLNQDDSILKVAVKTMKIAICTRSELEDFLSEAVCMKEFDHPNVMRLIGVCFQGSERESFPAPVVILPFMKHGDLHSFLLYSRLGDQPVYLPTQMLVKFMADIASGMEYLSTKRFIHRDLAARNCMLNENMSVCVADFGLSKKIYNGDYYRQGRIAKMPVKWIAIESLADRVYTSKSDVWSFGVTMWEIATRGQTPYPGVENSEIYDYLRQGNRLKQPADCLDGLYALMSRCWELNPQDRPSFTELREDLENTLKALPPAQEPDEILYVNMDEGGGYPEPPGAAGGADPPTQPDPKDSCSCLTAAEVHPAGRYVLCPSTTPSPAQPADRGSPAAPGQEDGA
The next assay addresses Mer (Homo sapiens (Human), UniProt Q12866). As to the kind of experiment: Mer kinase inhibition assay (Cisbio method, Eu-labeled antibody to phosphorylated peptide). Particulars: read-out: IC50 (μM) Mer; 1 hour reaction with substrate peptide and ATP.
Another assay addresses Tyro 3 (Homo sapiens (Human), UniProt Q06418). The assay is described as follows: Tyro 3 kinase inhibition assay (Cisbio method, Eu-labeled antibody to phosphorylated peptide). Particulars: read-out: IC50 (μM) Tyro 3; 1 hour reaction with substrate peptide and ATP.

Mer, sequence (Q12866 21-999): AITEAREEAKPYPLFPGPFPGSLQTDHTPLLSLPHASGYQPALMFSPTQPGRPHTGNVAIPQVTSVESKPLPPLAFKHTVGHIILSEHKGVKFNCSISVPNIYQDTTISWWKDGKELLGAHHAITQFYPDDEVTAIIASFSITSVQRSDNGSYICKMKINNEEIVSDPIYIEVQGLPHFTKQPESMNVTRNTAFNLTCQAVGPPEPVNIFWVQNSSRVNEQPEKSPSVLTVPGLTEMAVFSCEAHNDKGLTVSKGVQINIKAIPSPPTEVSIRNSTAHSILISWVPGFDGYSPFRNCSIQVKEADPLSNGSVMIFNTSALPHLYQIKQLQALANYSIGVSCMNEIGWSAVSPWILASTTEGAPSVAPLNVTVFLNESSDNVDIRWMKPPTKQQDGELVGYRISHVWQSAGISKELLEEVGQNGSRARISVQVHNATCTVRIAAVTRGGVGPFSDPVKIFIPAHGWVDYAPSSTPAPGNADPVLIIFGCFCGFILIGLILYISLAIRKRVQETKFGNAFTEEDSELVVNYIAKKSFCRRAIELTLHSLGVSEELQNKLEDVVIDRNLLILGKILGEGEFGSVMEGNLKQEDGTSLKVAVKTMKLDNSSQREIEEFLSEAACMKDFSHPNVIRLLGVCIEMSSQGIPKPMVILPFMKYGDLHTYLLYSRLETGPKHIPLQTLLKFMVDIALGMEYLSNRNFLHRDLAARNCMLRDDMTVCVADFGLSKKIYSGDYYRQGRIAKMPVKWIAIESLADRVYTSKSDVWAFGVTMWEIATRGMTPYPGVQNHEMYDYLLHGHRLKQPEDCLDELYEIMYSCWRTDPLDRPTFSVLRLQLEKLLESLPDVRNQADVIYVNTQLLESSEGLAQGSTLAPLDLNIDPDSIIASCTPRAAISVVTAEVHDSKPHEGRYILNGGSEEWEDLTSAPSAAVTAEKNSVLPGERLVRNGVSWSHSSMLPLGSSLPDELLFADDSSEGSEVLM
Tyro 3, sequence (Q06418 41-890): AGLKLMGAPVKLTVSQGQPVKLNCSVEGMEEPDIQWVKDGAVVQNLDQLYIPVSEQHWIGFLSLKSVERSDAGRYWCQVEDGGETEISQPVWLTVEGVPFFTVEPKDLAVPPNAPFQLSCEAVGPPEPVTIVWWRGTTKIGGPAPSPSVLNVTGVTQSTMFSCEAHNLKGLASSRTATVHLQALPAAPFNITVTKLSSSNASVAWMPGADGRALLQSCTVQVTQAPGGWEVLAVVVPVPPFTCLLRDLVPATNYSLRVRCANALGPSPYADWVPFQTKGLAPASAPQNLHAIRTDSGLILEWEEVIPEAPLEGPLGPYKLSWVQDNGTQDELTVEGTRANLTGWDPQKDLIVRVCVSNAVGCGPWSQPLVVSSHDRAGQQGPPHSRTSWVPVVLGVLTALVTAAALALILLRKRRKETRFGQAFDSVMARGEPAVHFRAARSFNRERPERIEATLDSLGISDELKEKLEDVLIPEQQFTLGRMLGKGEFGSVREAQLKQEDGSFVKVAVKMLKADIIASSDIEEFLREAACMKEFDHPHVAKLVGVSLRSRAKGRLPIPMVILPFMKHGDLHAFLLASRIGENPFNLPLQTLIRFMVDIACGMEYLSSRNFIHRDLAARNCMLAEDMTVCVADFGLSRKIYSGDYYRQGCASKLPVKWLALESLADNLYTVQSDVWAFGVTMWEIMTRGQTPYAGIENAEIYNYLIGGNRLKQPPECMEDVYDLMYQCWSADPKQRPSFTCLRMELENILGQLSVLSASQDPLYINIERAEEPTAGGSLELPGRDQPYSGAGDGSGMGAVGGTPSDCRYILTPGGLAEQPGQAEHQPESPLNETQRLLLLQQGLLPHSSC
Protocol for Axl: (§1) For evaluation of inhibitory activities of the compounds according to the present invention on Tyro 3, Axl, and Mer, the following test was carried out.
(§2) The specific test method followed the method provided by Cisbio. The compounds of the examples were prepared at various concentrations, followed by addition of Tyro 3, Axl, or Mer and substrate peptides, and then ATP was added to initiate a reaction. After 1 hour, the reaction was stopped by addition of a solution containing EDTA. Thereafter, the amount of phosphorylated peptides was measured. Here, the phosphorylated peptides were treated with an europium (Eu)-labeled antibody recognizing phosphorylated peptides, and then after 1 hour, excited by irradiation of the light of a wavelength of 320 or 340 nm using an Envision Reader.
Protocol for Mer: as §1, §2
Protocol for Tyro 3: as §1, §2

On to `Cc1ccc(Nc2ncc(Br)c(NC3CCCCC3)n2)cc1` [Compound 1, 5-bromo-N4-cyclohexyl-N2-(p-tolyl)pyrimidine-2,4-diamine], for which the IC50 on Axl, at Mer and on Tyro 3 was above 10 µM in each case.
Consider `Cn1cc(-c2cnc(Cl)nc2NC2CCCCC2)cn1` [Compound 4, 2-chloro-N4-cyclohexyl-5-(1-methyl-1H-pyrazol-4-yl)pyrimidine-4-amine], for which the half-inhibitory concentration (IC50) on Mer and at Tyro 3 was above 10 µM in each case.
As to `Cn1cc(-c2cnc(Nc3cc(Cl)cc(Cl)c3)nc2NC2CCCCC2)cn1` [Compound 5, N4-cyclohexyl-N2-(3,5-dichlorophenyl)-5-(1-methyl-1H-pyrazol-4-yl)pyrimidine-2,4-diamine], the IC50 (in general, the point on the concentration scale where inhibition reaches its midpoint) at Axl is above 10 µM; on Mer it was above 2 µM.
`Cn1cc(-c2cnc(Nc3cc(C(F)(F)F)cc(C(F)(F)F)c3)nc2Nc2ccc3c(c2)CN(C(=O)C(F)(F)F)CC3)cn1` [Compound 139, 1-(7-(2-(3,5-bis(trifluoromethyl)phenylamino)-5-(1-methyl-1H-pyrazol-4-yl)pyrimidin-4-ylamino)-3,4-dihydroisoquinolin-2(1H)-yl)-2,2,2-trifluoroethan-1-one]: the results for the IC50 on Axl and on Tyro 3 were above 10 µM and 6.2e-06 µM, respectively.
In the case of `CCOc1cn(-c2ccc(F)cc2C)nc1C(=O)Nc1ccc(Oc2ccnc3cc(OC)c(OC)cc23)c(F)c1` [LDC1267, reference compound], on Mer, the half-inhibitory concentration (IC50) was found to be 0.068 µM.
